Measured values as given in ChEMBL document CHEMBL2424569, “Synthesis of halogenated derivatives of thymol and their antimicrobial activities” (2013).
≈ marks a conversion by molar mass, not a printed value. Calls of active or inactive are those of the source. The calls are words filed in the database; no cut-off is given here.

Key:
Assay type in all cases: functional
Candida albicans [1] = assay: Antifungal activity against Candida albicans AI at MIC after 7 to 10 days by disc diffusion assay
Candida albicans [2] = assay: Antifungal activity against Candida albicans MTCC by two-fold serial dilution assay
Staphylococcus aureus [3] = assay: Antibacterial activity against Staphylococcus aureus by two-fold serial dilution assay
Candida albicans [4] = assay: Antifungal activity against Candida albicans AI by two-fold serial dilution assay
Streptococcus mutans [5] = assay: Antibacterial activity against Streptococcus mutans by two-fold serial dilution assay
Enterococcus faecalis [6] = assay: Antibacterial activity against Enterococcus faecalis at MIC after 48 hrs by disc diffusion assay
Klebsiella pneumoniae [7] = assay: Antibacterial activity against Klebsiella pneumoniae by two-fold serial dilution assay
Staphylococcus aureus [8] = assay: Antibacterial activity against Staphylococcus aureus at MIC after 48 hrs by disc diffusion assay
Streptococcus mutans [9] = assay: Antibacterial activity against Streptococcus mutans at MIC after 48 hrs by disc diffusion assay
[10] = system: Staphylococcus epidermidis; assay: Antibacterial activity against Staphylococcus epidermidis by two-fold serial dilution assay
Candida albicans [11] = assay: Antifungal activity against Candida albicans CN at MIC after 7 to 10 days by disc diffusion assay
Candida albicans [12] = assay: Antifungal activity against Candida albicans CN by two-fold serial dilution assay
Escherichia coli [13] = assay: Antibacterial activity against Escherichia coli by two-fold serial dilution assay
Enterococcus faecalis [14] = assay: Antibacterial activity against Enterococcus faecalis by two-fold serial dilution assay
Klebsiella pneumoniae [15] = assay: Antibacterial activity against Klebsiella pneumoniae at MIC after 48 hrs by disc diffusion assay
[16] = system: Staphylococcus epidermidis; assay: Antibacterial activity against Staphylococcus epidermidis at MIC after 48 hrs by disc diffusion assay
Escherichia coli [17] = assay: Antibacterial activity against Escherichia coli at MIC after 48 hrs by disc diffusion assay
Klebsiella aerogenes [18] = assay: Antibacterial activity against Enterobacter aerogenes at MIC after 48 hrs by disc diffusion assay
Candida albicans [19] = assay: Antifungal activity against Candida albicans MTCC at MIC after 7 to 10 days by disc diffusion assay
Klebsiella aerogenes [20] = assay: Antibacterial activity against Enterobacter aerogenes by two-fold serial dilution assay

Row | Structure (SMILES) | Activity (Candida albicans [1]) | Activity (Candida albicans [2]) | Activity (Staphylococcus aureus [3]) | Activity (Candida albicans [4]) | Activity (Streptococcus mutans [5]) | Activity (Enterococcus faecalis [6]) | Activity (Klebsiella pneumoniae [7]) | Activity (Staphylococcus aureus [8]) | Activity (Streptococcus mutans [9]) | Activity [10] | Activity (Candida albicans [11]) | Activity (Candida albicans [12]) | Activity (Escherichia coli [13]) | Activity (Enterococcus faecalis [14]) | Activity (Klebsiella pneumoniae [15]) | Activity [16] | Activity (Escherichia coli [17]) | Activity (Klebsiella aerogenes [18]) | Activity (Candida albicans [19]) | Activity (Klebsiella aerogenes [20]) | further results
1 | Cc1ccc(C(C)C)c(O)c1 [THYMOL] |  |  |  |  |  |  |  |  |  |  |  |  |  |  |  |  |  |  |  |  | inhibition zone (IZ) (Candida albicans [1]): 5 mm; MIC (Candida albicans [2]): 100 µg/mL (≈ 666 µM); MIC (Staphylococcus aureus [3]): 125 µg/mL (≈ 832 µM); MIC (Candida albicans [4]): 100 µg/mL (≈ 666 µM); MIC (Streptococcus mutans [5]): 62.5 µg/mL (≈ 416 µM); inhibition zone (IZ) (Enterococcus faecalis [6]): 10 mm; MIC (Klebsiella pneumoniae [7]): 250 µg/mL (≈ 1660 µM); inhibition zone (IZ) (Staphylococcus aureus [8]): 12 mm; inhibition zone (IZ) (Streptococcus mutans [9]): 11 mm; MIC [10]: 32.2 µg/mL (≈ 215 µM); inhibition zone (IZ) (Candida albicans [11]): 6 mm; MIC (Candida albicans [12]): 100 µg/mL (≈ 666 µM); MIC (Escherichia coli [13]): 100 µg/mL (≈ 666 µM); MIC (Enterococcus faecalis [14]): 62.5 µg/mL (≈ 416 µM); inhibition zone (IZ) (Klebsiella pneumoniae [15]): 6 mm; inhibition zone (IZ) [16]: 18 mm; inhibition zone (IZ) (Escherichia coli [17]): 3 mm; inhibition zone (IZ) (Klebsiella aerogenes [18]): 8 mm; inhibition zone (IZ) (Candida albicans [19]): 8 mm; MIC (Klebsiella aerogenes [20]): 125 µg/mL (≈ 832 µM)
2 | COc1cc(C)ccc1C(C)C | inactive | inactive | inactive | inactive | inactive | inactive | inactive | inactive | inactive | inactive | inactive | inactive | inactive | inactive | inactive | inactive | inactive | inactive | inactive | inactive | 
3 | Cc1cc(O)c(C(C)C)cc1Cl [CHLOROTHYMOL] |  |  |  |  |  |  |  |  |  |  |  |  |  |  |  |  |  |  |  |  | inhibition zone (IZ) (Candida albicans [1]): 30 mm; MIC (Candida albicans [2]): 100 µg/mL (≈ 542 µM); MIC (Staphylococcus aureus [3]): 12.5 µg/mL (≈ 67.7 µM); MIC (Candida albicans [4]): 100 µg/mL (≈ 542 µM); inhibition zone (IZ) (Staphylococcus aureus [8]): 5 mm; MIC [10]: 25 µg/mL (≈ 135 µM); inhibition zone (IZ) (Candida albicans [11]): 10 mm; MIC (Candida albicans [12]): 100 µg/mL (≈ 542 µM); inhibition zone (IZ) [16]: 6 mm; inhibition zone (IZ) (Candida albicans [19]): 20 mm
4 | COc1cc(C)c(I)cc1C(C)C | inactive | inactive | inactive | inactive | inactive | inactive | inactive | inactive | inactive | inactive | inactive | inactive | inactive | inactive | inactive | inactive | inactive | inactive | inactive | inactive | 
5 | Cc1ccc(C(C)C)c(O)c1Br | inactive | inactive |  | inactive |  |  |  |  |  |  | inactive | inactive |  |  |  |  |  |  | inactive |  | MIC (Streptococcus mutans [5]): 125 µg/mL (≈ 546 µM); inhibition zone (IZ) (Streptococcus mutans [9]): 3 mm; inhibition zone (IZ) (Klebsiella aerogenes [18]): 2 mm; MIC (Klebsiella aerogenes [20]): 100 µg/mL (≈ 436 µM)
6 | Cc1c(Cl)cc(C(C)C)c(O)c1Br | inactive | inactive | inactive | inactive | inactive | inactive | inactive | inactive | inactive | inactive | inactive | inactive | inactive | inactive | inactive | inactive | inactive | inactive | inactive | inactive | 
7 | C[C@@H]1[C@H](O)[C@@H](C)/C=C/C=C/C=C/C=C/C=C/C=C/C=C/[C@H](O[C@@H]2O[C@H](C)[C@@H](O)[C@H](N)[C@@H]2O)C[C@@H]2O[C@](O)(C[C@@H](O)C[C@@H](O)[C@H](O)CC[C@@H](O)C[C@@H](O)CC(=O)O[C@H]1C)C[C@H](O)[C@H]2C(=O)O [AMPHOTERICIN B] |  |  |  |  |  |  |  |  |  |  |  |  |  |  |  |  |  |  |  |  | inhibition zone (IZ) (Candida albicans [1]): 30 mm; MIC (Candida albicans [2]): 100 µg/mL (≈ 108 µM); MIC (Candida albicans [4]): 100 µg/mL (≈ 108 µM); inhibition zone (IZ) (Candida albicans [11]): 10 mm; MIC (Candida albicans [12]): 100 µg/mL (≈ 108 µM); inhibition zone (IZ) (Candida albicans [19]): 20 mm
8 | Cc1c(Br)cc(C(C)C)c(O)c1Br | inactive | inactive |  | inactive |  |  |  |  |  |  | inactive | inactive |  |  |  |  |  |  | inactive |  | MIC (Staphylococcus aureus [3]): 250 µg/mL (≈ 812 µM); inhibition zone (IZ) (Staphylococcus aureus [8]): 13 mm; MIC [10]: 1000 µg/mL (≈ 3250 µM); inhibition zone (IZ) [16]: 16 mm
9 | CN[C@@H]1[C@H](O[C@H]2[C@H](O[C@H]3[C@H](O)[C@@H](O)[C@H](N=C(N)N)[C@@H](O)[C@@H]3N=C(N)N)O[C@@H](C)[C@]2(O)C=O)O[C@@H](CO)[C@H](O)[C@H]1O [STREPTOMYCIN] |  |  |  |  |  |  |  |  |  |  |  |  |  |  |  |  |  |  |  |  | MIC (Staphylococcus aureus [3]): 12.5 µg/mL (≈ 21.5 µM); MIC (Streptococcus mutans [5]): 6.35 µg/mL (≈ 10.9 µM); inhibition zone (IZ) (Enterococcus faecalis [6]): 10 mm; MIC (Klebsiella pneumoniae [7]): 2.71 µg/mL (≈ 4.66 µM); inhibition zone (IZ) (Staphylococcus aureus [8]): 9 mm; inhibition zone (IZ) (Streptococcus mutans [9]): 13 mm; MIC [10]: 6.35 µg/mL (≈ 10.9 µM); MIC (Escherichia coli [13]): 1.35 µg/mL (≈ 2.32 µM); MIC (Enterococcus faecalis [14]): 0.36 µg/mL (≈ 0.619 µM); inhibition zone (IZ) (Klebsiella pneumoniae [15]): 9 mm; inhibition zone (IZ) [16]: 9 mm; inhibition zone (IZ) (Escherichia coli [17]): 9 mm; inhibition zone (IZ) (Klebsiella aerogenes [18]): 10 mm; MIC (Klebsiella aerogenes [20]): 2.71 µg/mL (≈ 4.66 µM)
10 | COc1c(C(C)C)ccc(C)c1Br | inactive | inactive | inactive | inactive | inactive | inactive | inactive | inactive | inactive | inactive | inactive | inactive | inactive | inactive | inactive | inactive | inactive | inactive | inactive | inactive | 
11 | Cc1c(Cl)cc(C(C)C)c(O)c1Cl | inactive | inactive | inactive | inactive | inactive | inactive | inactive | inactive | inactive | inactive | inactive | inactive | inactive | inactive | inactive | inactive | inactive | inactive | inactive | inactive | 
